Legend:
Format in all cases: cell-based
E. coli strain Mu14S = assay: FAST flow cytometry AST with PB-sQF, bacteria recovered from 10% human blood
Procedure: (§1) Varied counts of bacteria were mixed with human blood and diluted 1:9 (v/v) with bacterial growth medium to desired bacterial concentrations (<10 CFU/mL final solution) and plated to independently confirm CFU/mL blood. Saponin was immediately added and the samples shaken for 15 minutes to achieve selective blood cell lysis. After hemolysis, bacteria were spun down and washed with PBS. The pellets were resuspended in bacterial growth medium and incubated at 37° C. for 2 hours, followed by another 3-hour incubation with antibiotics at various fractions of the minimum inhibition concentration (MIC, as independently determined by microdilution from the pure starting culture, Table 1) for sensitive strains or at the CLSI MIC resistant breakpoints^(12) for the highly resistant strains. Changes in scattered light signals largely resulting from bacterial growth inhibition were monitored by flow cytometry, and the difference in the 2-D scatter histograms with and without antibiotic treatment was quantified with PB-sQF statistics.^(1) Using PB-sQF, distance was calculated for each antibiotic concentration relative to its own no-antibiotic control and expressed as “fold distance” relative to the 99% confidence limit distance between the no-antibiotic control and the sensitive breakpoint. This allowed comparison of fold distances among all samples as each is individually paired to its own control, as is each replicate.
(§2) To simulate a blood specimen from a patient with bacteremia, the isolates were grown, diluted to the desired CFU/mL in blood (ZenBio, Research Triangle Park, NC) and saponin was added to achieve the final diluted sample. Initial bacterial cultures were prepared using Luria-Bertani (LB) broth for (E. coli) or cation-adjusted Mueller-Hinton broth (CAMHB). The fresh bacterial cultures started from ˜0.05 optical density (OD) by inoculating a 6-mL fresh growth medium with overnight culture were grown in an incubator shaker (MaxQ 4000, Thermal Fisher Scientific, Waltham, MA) at 37° C. and 225 rpm. After the culture reached mid-log phase, bacteria were collected and diluted into ˜10 CFU/mL through serial 10-fold dilutions. Bacterial densities were determined by plating onto LB plates. The final 10-fold dilution was performed by adding 500 μL of 100 CFU/mL into 4500 μL of 10% human blood in medium.
(§3) A 2.5% (w/v) of saponin solution was prepared, sonicated (Branson 2510, Emerson, St. Louis, MO) for 20 minutes and spun down with a clinical centrifuge (Centrific Model 228, Fisher Scientific, Waltham, MA) for 4 minutes. The supernatant cleared of particulates was collected. 500 μL of 2.5% saponin was then added to the 5 mL of 10% human blood sample with ˜10 CFU/mL, described above and the mixtures were shaken at 300 rpm for 15 minutes at 37° C. After the saponin treatment, the bacteria were pelleted and washed with 2 mL of phosphate buffered saline (PBS) (Life Technologies, Carlsbad, CA) using a clinical centrifuge for 2 minutes. Bacterial growth medium (2.5 mL) was then added to the tube and incubated for 2 hours at 37° C. and 225 rpm.
(§4) After the 2-hour incubation, 500-μL aliquots of the suspension were added to each of 4 wells in a 12-well microtiter plate that contained 500 μL of growth medium with or without antibiotic at 2-fold of specified concentrations. The plate was then incubated at 37° C. for 3 hours. Bacteria were collected by centrifugation (Centrifuge 5417R, Eppendorf) and resuspended in 200 μL of PBS for flow cytometry detection. To ensure each clinical isolate was tested at its MIC values of the tested antibiotics, the initial bacterial cultures at the 1000 CFU/mL dilution were also tested for each experiment (FIGS. 4A-4F, 5A-5F, 7A-7F, 8A-8F, and 9A-9F), confirming that the antibiotic concentrations indeed inhibited bacterial growth.
(§5) Cytometric data were collected by BD LSRFortessa flow cytometer (Becton Dickinson, Franklin Lake, NY) equipped with a 100 mW, 488 nm laser for the scatter signal. […]

E. coli strain Mu890 = assay: as above
Procedure: as §1, §2, §3, §4, §5

[1] = system: K. pneumoniae strain Mu55; assay: as above; settings: ~8 CFU/mL after 10-fold dilution
Procedure: as §1, §2, §3, §4, §5

[2] = system: K. pneumoniae strain Mu670; assay: as above; settings: ~9 CFU/mL after 10-fold dilution
Procedure: as §1, §2, §3, §4, §5

[3] = system: A. nosocomialis strain M2; assay: as above; settings: M2 spiked in 10% human blood, assayed within 8 hrs of simulated blood draw
Procedure: Varied counts of bacteria were mixed with human blood and diluted 1:9 (v/v) with bacterial growth medium to desired bacterial concentrations (<10 CFU/mL final solution) and plated to independently confirm CFU/mL blood. Saponin was immediately added and the samples shaken for 15 minutes to achieve selective blood cell lysis. After hemolysis, bacteria were spun down and washed with PBS. […] This allowed comparison of fold distances among all samples as each is individually paired to its own control, as is each replicate.
To simulate a blood specimen from a patient with bacteremia, the isolates were grown, diluted to the desired CFU/mL in blood (ZenBio, Research Triangle Park, NC) and saponin was added to achieve the final diluted sample. Initial bacterial cultures were prepared using Luria-Bertani (LB) broth for (E. coli) or cation-adjusted Mueller-Hinton broth (CAMHB). The fresh bacterial cultures started from ˜0.05 optical density (OD) by inoculating a 6-mL fresh growth medium with overnight culture were grown in an incubator shaker (MaxQ 4000, Thermal Fisher Scientific, Waltham, MA) at 37° C. and 225 rpm. […] Bacterial densities were determined by plating onto LB plates. […]
Cytometric data were collected by BD LSRFortessa flow cytometer (Becton Dickinson, Franklin Lake, NY) equipped with a 100 mW, 488 nm laser for the scatter signal. […] Data were recorded with FACSDiVa provided by BD. […]

[4] = system: Lab-strain E. coli (ATCC); assay: FAST with low bacterial counts (500 counts by flow cytometry); settings: each antibiotic at MIC, ¼ MIC and 1/16 MIC, bars beyond the 99% confidence line
Excerpt: FIG. 14. Bactericidal Antibiotic-induced changes for low counts of E. coli. Lab-strain E. coli (ATCC) ASTs performed with 500 counts by flow cytometry with gentamicin (Gen), penicillin G (PenG), and tetracycline (Tet) each at MIC, ¼ MIC and 1/16 MIC. This strain is seen to be sensitive to all three antibiotics, as the bars extend beyond the 99% confidence line.
While both morphology and growth inhibition occur upon exposure to antibiotics near the minimum inhibitory concentration, standard ASTs are based on growth inhibition alone. The presence of bacteria is clearly indicated by the presence of a particular scattering peak in the multidimensional histogram. This is much more sensitive and less affected by background than is shifts in a peak resulting from morphological changes upon antibiotic exposure. […] For even a few hundred counts, the presence of a bacterial population can be readily assessed with flow cytometry, but error bars and statistical distances must be properly determined relative to no-antibiotic controls. When too few counts for triplicate runs exist, control and each antibiotic exposure histograms are treated as probability distributions that are representative of the true mother distribution for each condition. Each histogram is binned (either adaptively with probability binning or using regular bins) and the distribution of data within each bin is determined. […]

Substance: Gentamicin
- FAST antibiotic-induced scatter signal change (E. coli strain Mu14S; Mu14S treated at the MIC): exhibits growth inhibition
- PB-sQF fold distance average versus the paired-control (E. coli strain Mu14S; Mu14S, 1×MIC, triplicate data): clear differences
- PB-sQF fold distance-based FAST result (E. coli strain Mu890; Mu890, beyond the 99% confidence level): effective
- FAST antibiotic-induced scatter signal change (E. coli strain Mu890; Mu890 treated at the MIC, 3-hr incubation, vs paired no-antibiotic control): effective growth inhibition
- PB-sQF FAST result [1]: appropriate
- PB-sQF FAST result [2]: appropriate
- PB-sQF FAST susceptibility [3]: susceptible
- PB-sQF AST susceptibility at low counts [4]: sensitive

Reference: US12061143B2, “Methods for rapid determinations of antibiotic susceptibility phenotypes” (priority 2018, dated 2024)
